Measured values reported in patent publication US9566282B2, “Methods for identifying and validating selective anti-cancer stem cell agents” (MCMASTER UNIVERSITY, priority 2011, dated 2017).
Where a name gives a salt, the structure may show the parent alone.

Assays:
AML-OCI2 and AML-OCI3 [1] = assay: Volumetric cell counts of AML lines treated with DR antagonists or agonists; assay type: cell-based, human; settings: 72 h, serum-free conditions
Experimental: The number of AML-OCI2 and AML-OCI3 cells present after 72 h treatment with DR antagonists (FIG. 16b) and agonist (FIG. 16c-d) were counted by measuring the number of events within a fixed volume following the grating strategy defined by forward scatter and side scatter clustering, 7AAD− and Hoechst+.
(§1) Due to the bioavailability of dopamine in fetal bovine serum (FBS) (Little et al., 2002), serum-free conditions were employed to assess the role of DRs in AML. […] DR D2-family and D1-family exert opposing actions on intracellular signaling leading to differential biological effects (Self et al., 1996).

[2] = test system: primary AML cells (AML blast CFU); assay: Methylcellulose blast-CFU assay, primary AML cells; assay type: cell-based, human; settings: for AML-blast CFU potential / formation: 24 h treatment before plating, salinomycin at 1 μM and 10 μM
From the text: as §1

AML-OCI2 and AML-OCI3 [3] = assay: Induction of apoptosis in AML cancer cell lines (normal nuclei); assay type: cell-based, human
AML LSCs = assay: Xenotransplantation of compound-treated AML cells into NSG mice; assay type: in vivo, human; settings: 10 μM, cells treated 24 h before transplantation
Experimental: (§2) NOD.Cg-Prkdc^scid ll2rg^tm1Wjl/SzJ adult mice (NSG) were sub-lethally irradiated with 315 rads 24 hours prior transplantation. 0.8-1.0×10^7 AML MNCs or 1.5-1.8×10^5 CB lin− hematopoietic cells treated with compound or DMSO-vehicle for 24 h were injected via tail vein (IV). After 6-10 weeks, animals were culled, and the BM and spleen were analyzed for the presence of human cells by flow cytometry (LSRII, BD) and data was analyzed using FlowJo software (Tree Star Inc). For secondary HSPC transplants, equal number of engrafted human cells from CB lin− transplants were injected IV in adult irradiated NSG mice as described for primary transplants.
(§3) To delineate whether the inhibition of AML-blasts detected in vitro was due to the compounds affecting the neoplastic stem cell compartment, xenotransplantation studies (Dick, 2008) that functionally define LSCs and hematopoietic stem cells (HSCs) were conducted (FIG. 12).

[4] = test system: HL-60, MV4-11 and OCI-AML3; assay: Cytotoxicity to leukemic cell lines (normalized cell number, 72 h); assay type: cell-based; settings: 10 μM
Experimental: (§4) All three lines are leukemic cell lines. HL-60 was derived from promyelocytic AML whereas MV 4-11 and OCI-AML3 are representative of AML. Each compound was incubated with the cells for 72 h. The control was DMSO (ie the vehicle used for the compound) for 72 h. Each condition had three replicates.
The dopamine receptor antagonist and phenothiazine-related compound chlorpromazine was also investigated for effects on the AML cell lines HL-60, MV4-11 and OCI-AML3. Testing was performed as set out in Example 1.

[5] = test system: HL-60, OCI-AML2 and OCI-AML3; assay: Cytotoxicity of DR agonists/antagonists against AML cell lines; assay type: cell-based; settings: 72 h; CLOZ at higher concentrations
Experimental: as §4
A series of dopamine receptor agonists, D3-antagonists, DR1 & 5-antagonists and multi-receptor antagonists were tested for cytotoxicity against three AML cell lines HL-60, OCI-AML2 and OCI-AML3. Testing was performed as set out in Example 1.

[6] = test system: normal HSCs / HSPC (CB lin-); assay: Methylcellulose colony-forming assay, normal HSC/HSPC; assay type: cell-based, human; settings: for HSPC CFU potential: 24 h treatment before plating, 0.1, 1, 10 μM tested
Experimental: Normal HSCs and progenitors were sourced from either mobilized peripheral blood or umbilical cord blood of health patients.
Patient HSPC and AML samples were treated with compound or DMSO-vehicle (0.1%) for 24 h prior to CFU plating or xenotransplantation studies.
AML patient or CB lin− cells were cultured 24 hours in the presence of compound or DMSO-vehicle (0.1%) control. […] CB lin− cells were plated at 1000 cells/mL in Methocult GF H4434 (Stem Cell Technologies). Colonies were scored after 14 days of culture using standard morphological criteria.

HSPCs / HSCs (CB lin-) = settings: in vivo
Experimental: as §2, §3

neoplastic hPSCs [7] = assay: TaqMan Low-Density Array-qPCR of differentiation genes; assay type: cell-based, human; settings: thioridazine-treated neoplastic hPSCs; >2 fold increase
Experimental: Cells in specific conditions were collected and RNA was extracted by using RNeasy kit (Qiagen), complementary DNA (cDNA) generation by using SuperScript III® cDNA synthesis kit (Invitrogen), pre-amplification and TaqMan® array reaction (Applied Biosystems) were performed according to manufacturer's instructions. The gene expression profile for each treated cell population was analyzed using TaqMan® Stem Cell Pluripotency Array Card on ViiA 7 Real-Time PCR System (Applied Biosystems). Each reaction sample was dispensed into loading wells on the array card and centrifuged twice at 336×g for 1 min each time, sealed, and placed in the thermal cycler. The following cycling conditions were used for all array card applications: 45° C. for 10 min, 94° C. for 10 min, and 40 cycles of 94° C. for 30 s followed by 60° C. for 1 min. Array data were normalized to 18S RNA and GAPDH and comparisons were performed using data analysis 2.0 software (Applied Biosystems).
Rapid accumulation of the cell stress marker p53 (FIG. 10d) and its transcriptional target p21 (FIG. 10e) were used to further distinguish differentiation induction from cellular toxicity.

[8] = test system: v1O4 cells (v1H9-Oct4-GFP); assay: Library screen on variant neoplastic stem cells (LOP and cell count); assay type: cell-based, human; settings: for hit: loss of pluripotency and reduction in cell counts: 10 μM or 1 μM, 72 hours, Z-score more than 3 SD
Experimental: Compounds that reduced cell counts below 100 were classified as highly toxic and not considered as useful.
Briefly, v1O4 cells were seeded into Matrigel-coated 96 well plates (5000 cells/well) containing mouse embryonic fibroblast conditioned media (MEFCM) supplemented with 8 ng/mL bFGF, and treated for 72 hours with compounds dissolved in DMSO. The final concentration of each compound used in treatment was either 10 μM or 1 μM (n=3). Control wells were treated with 0.1% DMSO (low control) or 100 ng/ml BMP4 (high control to induce LOP). At the end of 72 hours, cells were fixed, stained with Hoechst and imaged by automated microscopy. GFP intensity and Hoechst signal were quantified as measures of LOP and cell count, respectively, and compounds with a Z-score of more than 3 standard deviations from the mean for reduced cell count and LOP were chosen as hits.

neoplastic hPSCs [9] = assay: p53 and p21 staining of neoplastic hPSC; assay type: cell-based, human; settings: 24 h; compounds at 10 μM
From the text: Antibodies used for immunocytochemistry were the following: Oct3/4 (BD Trunsduction Laboratories, cat#611203), Sox2 (R&D, cat#AF2018). To detect human hematopoietic cells, Pacific Blue−, PE−, APC− or FITC labeled anti-human CD45 was used (BD Biosciences). FITC anti-CD33, PE anti-CD13, FITC anti-CD41a, FITC anti-HLA DR, and PE anti-CD19 antibodies were obtained from BD Pharmingen. PE anti-CD14, PE anti-CD15 and PE anti-GlyA were acquired from Immunotech Beckman Coulter. To determine pluripotency, PE anti-SSEA3 (BD Biosciences) and PE- or AlexaFluor488 anti-Oct4 (BD Biosciences). Rabbit anti-human dopamine receptor antibodies; DRD1 (Cat#324390), DRD2 (Cat#324393), DRD3 (Cat#324402), DRD4 (Cat#324405) and DRD5 (Cat#324408) were sourced from EMD Chemical. Anti-rabbit Alexa-Fluor-488 (Molecular Probes) was used as the secondary antibody. Primary anti-p53 (Cat#2527) and anti-p21 (Cat#2947) rabbit IgG sourced from Cell Signaling Technology were used to stain fixed and permeabilized cells. Anti-rabbit alexa-Fluor-546 (Molecular Probes) was used as the secondary antibody. For breast tumor staining, APC anti-CD44 and PE-CD24 were sourced from BD Pharmingen.

[10] = test system: neoplastic hPSCs (v1H9-Oct4-GFP); assay: Flow cytometry of Oct4+ cells in neoplastic hPSC; assay type: cell-based, human; settings: three concentrations; compared with BMP4 differentiation controls
[11] = test system: v1O4 cells versus H9 cells; assay: Dose-response cell counts, v1O4 versus H9 (selective-activity potency ratio); assay type: cell-based, human; settings: single 10 μM concentration point; selective at other concentrations
Experimental: The first step in the screening process, the primary screen, is shown in FIG. 21, step 1 and is also described in FIG. 17 and Example 13. […] These compounds then undergo a further set of analysis described in FIG. 21, step 2. […] 8- or 10-point dilutions for each compound are tested on variant neoplastic stem cells (V1O4) and normal stem cells (H9 cells) cells to generate dose-response curves. […] Dose response data were fit with a 4-parameter Hill equation to derive EC50, slopes, min and max values using IDBS ActivityBase software. The EC50 values are then used to calculate a selective-activity potency ratio (H9 EC50/v1O4 EC50). […] The efficacy of each compound can also be quantified by analysis if the derived min value from the 4-parameter Hill fit. An alternative metric for selective activity is an efficacy comparison. Selective EFFICACY=H9−FittedMin−v1O4−FittedMin.
Selectivity activity ratios [EC50 (v1O4)/EC50 (H9)] were calculated as discussed in Example 15 for a number of compounds screened using the methods described herein.

[12] = sorted patient AML cells, 24 h treatment

Molecule: CSc1ccc2c(c1)N(CCC1CCCCN1C)c1ccccc1S2 (racemic) [thioridazine, 10-{2-[(RS)-1-Methylpiperidin-2-yl]ethyl}-2-methylsulfanylphenothiazine]
- number of AML cells (AML-OCI2 and AML-OCI3 [1]): reduced the number of AML cells
- number of AML CFU blast colonies ([2]; 10 μM, control about 22, at least 14 days): 1.6 blast colonies
- AML-blast CFU potential / formation [2]: reduced AML-blast CFU formation
- blast-CFU generation, DR+ subfraction [2, 12]: reduction in blast-CFU generation
- blast-CFU generation, DR− subfraction [2, 12]: no reduction
- induction of apoptosis / cell death (AML-OCI2 and AML-OCI3 [3]): exerts its effects on these cell lines through cell death
- AML LSC capacity (CD45+ CD33+ blast engraftment) (AML LSCs): significantly reduce leukemic disease-initiating AML LSCs
- normalized cell number / toxicity [4]: reduced to almost zero
- cytotoxicity of AML cell lines [5]: significant effect on cytotoxicity
- colony forming potential of normal HSCs ([6]; 10 μM, DMSO control about 100, at least 14 days): about 66 total colonies
- HSPC CFU potential [6]: little effect on HSPC CFU potential
- HSC self-renewal (HSPCs / HSCs (CB lin-)): did not affect HSC self-renewal
- differentiation-associated genes upregulated (neoplastic hPSCs [7]): 21 of 50
- hit: loss of pluripotency and reduction in cell counts [8]: identified as a hit
- signs of cell stress/death (Hoechst nuclear stain) ([8]; 10 μM, 3-day treatment): less signs of cell stress/death than cells treated with thiostrepton
- accumulation of p53 and p21 (neoplastic hPSCs [9]): no accumulation of p53 or p21
- cell number and levels of Oct4 in neoplastic hPSCs [10]: reduce levels of Oct4 below BMP4 differentiation controls

Molecule: Br.CCCN(CCC)[C@@H]1CCc2ccc(O)cc2C1 [7OH-DPAT, R(+)-7-Hydroxy-DPAT hydrobromide]
- number of AML cells (AML-OCI2 and AML-OCI3 [1]): increased the number of AML cells

Molecule: Nc1nc2nn[nH]c2c(=O)[nH]1 [8-azaguanine]
- selectivity for cancer stem cells at a single concentration point [11]: would have not be considered selective for cancer stem cells

Molecule: Cn1cc(C2=C(c3cn(CCCSC(=N)N)c4ccccc34)C(=O)NC2=O)c2ccccc21 [31-8220]
- selectivity for cancer stem cells at a single concentration point [11]: would have not be considered selective for cancer stem cells

Molecule: Oc1cc2c(cc1O)[C@@H](c1ccccc1)CNCC2 [SKF38393, (R)-(+)-SKF-38393 hydrochloride]
- number of AML cells (AML-OCI2 and AML-OCI3 [1]): significant reduction in AML cell number

Molecule: CN(C)CCCN1c2ccccc2Sc2ccc(Cl)cc21 [chlorpromazine, Chlorpromazine hydrochloride]
- number of AML cells (AML-OCI2 and AML-OCI3 [1]): reduced the number of AML cells
- normalized cell number / toxicity [4]: toxic to AML cell lines
- cytotoxicity of AML cell lines [5]: significant effect on cytotoxicity
- hit: loss of pluripotency and reduction in cell counts [8]: did not have a comparable effect on v1O4 cells

Molecule: CN1CCN(C2=Nc3cc(Cl)ccc3Nc3ccccc32)CC1 [clozapine, Clozapine]
- cytotoxicity of AML cell lines [5]: significant effect on cytotoxicity

Molecule: COc1cc([C@@H]2c3cc4c(cc3[C@@H](O[C@@H]3O[C@@H]5CO[C@@H](C)O[C@H]5[C@H](O)[C@H]3O)[C@H]3COC(=O)[C@H]23)OCO4)cc(OC)c1O [etoposide]
- accumulation of p53 and p21 (neoplastic hPSCs [9]): high levels of p53 and p21

Molecule: OCCN1CCN(CCCN2c3ccccc3Sc3ccc(C(F)(F)F)cc32)CC1 [fluphenazine]
- hit: loss of pluripotency and reduction in cell counts [8]: identified as hits

Molecule: OC(c1cc(C(F)(F)F)nc2c(C(F)(F)F)cccc12)C1CCCCN1 (stereo not shown) [mefloquine]
- AML-blast CFU potential / formation [2]: reduced AML-blast CFU formation
- AML LSC capacity (CD45+ CD33+ blast engraftment) (AML LSCs): ineffective in reducing AML LSC capacity
- HSPC CFU potential [6]: little effect on HSPC CFU potential
- cell number and levels of Oct4 in neoplastic hPSCs [10]: reductions in cell number and the levels of Oct4

Molecule: CCCCc1ccc2[nH]c(NC(=O)OC)nc2c1 [parbendazole]
- selectivity for cancer stem cells at a single concentration point [11]: would have not be considered selective for cancer stem cells

Molecule: OCCN1CCN(CCCN2c3ccccc3Sc3ccc(Cl)cc32)CC1 [perphenazine]
- hit: loss of pluripotency and reduction in cell counts [8]: identified as hits

Molecule: CN1CCN(CCCN2c3ccccc3Sc3ccc(Cl)cc32)CC1 [prochlorperazine]
- hit: loss of pluripotency and reduction in cell counts [8]: identified as hits

Molecule: CC[C@@H](C(=O)[C@@H](C)[C@@H](O)[C@H](C)[C@@H]1O[C@@H]([C@@H](CC)C(=O)O)CC[C@@H]1C)[C@H]1O[C@]2(C=C[C@@H](O)[C@]3(CC[C@@](C)([C@H]4CC[C@](O)(CC)[C@H](C)O4)O3)O2)[C@H](C)C[C@@H]1C [salinomycin]
- AML-blast CFU potential / formation [2]: reduced AML-blast CFU potential
- HSPC CFU potential [6]: reduced HSPC CFU potential over all doses tested

Molecule: CN1CCN(CCCN2c3ccccc3Sc3ccc(C(F)(F)F)cc32)CC1 [trifluoperazine]
- hit: loss of pluripotency and reduction in cell counts [8]: identified as hits

Molecule: CN(C)CCCN1c2ccccc2Sc2ccc(C(F)(F)F)cc21 [triflupromazine]
- hit: loss of pluripotency and reduction in cell counts [8]: identified as hits

Molecule: BMP4: positive control that induces differentiation / loss of pluripotency, 100 ng/ml
- accumulation of p53 and p21 (neoplastic hPSCs [9]): no accumulation of p53 or p21
